Assays:
[1] = tested on: lactate dehydrogenase (LDH); assay: ELISA analysis of phage on LDH (irrelevant, non-specific target); assay type: binding; details: peptide binding to LDH polypeptide (non-specific binding); phage ELISA units read at 405 nm
Outline: (§1)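 Phage from picked clones (M13KO7 helper) bound 2 hr at room temperature to wells coated overnight at 4 °C with 500 ng/well anti-ETAG antibody or LDH, milk-blocked. Detection with HRP-anti-M13 (1:3000) and ABTS at 405 nm; positive when A405 ≥2-fold over background.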

DGI-2 = target: T1, DGI-2 (Homo sapiens, UniProt Q15004); assay: ELISA analysis of phage on DGI-2 polypeptide (specific binding); details: for DGI-2 (OD): binding to DGI-2 polypeptide (specific binding), phage ELISA units read at 405 nm; for DGI-2/LDH (OD): ratio of specific binding to non-specific binding
T1 construct: encompassed the entire DGI-2 open reading frame (ORF); His-tag of vector pIVEX2.3-MCS (inferred from the vector and from the reverse primer lacking a stop codon); made in house; host or cells: cell-free in vitro translation (Rapid Translation System RTS, Roche; E. coli lysate)
T1 sequence (Q15004 1-111): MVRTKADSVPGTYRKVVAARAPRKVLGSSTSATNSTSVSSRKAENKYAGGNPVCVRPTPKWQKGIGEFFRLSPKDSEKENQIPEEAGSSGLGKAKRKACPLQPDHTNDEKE
Outline: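 Recombinant DGI-2 from in vitro translation, LDH (non-specific) and controls were coated at 500 ng/well and blocked with 2% milk-PBS. Phage from individual clones bound for 2 hr at room temperature, then anti-M13-HRP with ABTS was read at 405 nm; a clone counted as positive at ≥2-fold over background.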

E-tag antibody = assay: ELISA analysis of phage on antibody raised against ETAG (positive control); details: peptide binding to E-tag antibody; phage ELISA units read at 405 nm
Outline: as §1

Sequence: MGQGFHYNRQPYMSHQCYAFTFSTPFLDGDRIPHGVSRGL (DGI-2-40F-3-D1; listed as Escherichia coli)
- LDH (OD) [1]: 0.8 OD
- DGI-2 (OD) (DGI-2): 0.8 OD
- DGI-2/LDH (OD) (DGI-2): 1.0
- ETAG (OD) (E-tag antibody): 4.1 OD

Sequence: LSVFRPGQFPHVGARGVSRT (DGI-2-20R-4-G32; listed as Escherichia coli)
- LDH (OD) [1]: 1.1 OD
- DGI-2 (OD) (DGI-2): 1.4 OD
- DGI-2/LDH (OD) (DGI-2): 1.2
- ETAG (OD) (E-tag antibody): 11.0 OD

Sequence: GGDLGEQGVQLCPDVVRGGSL (DGI-2-20F-PP-A7; listed as Escherichia coli)
- LDH (OD) [1]: 0.9 OD
- DGI-2 (OD) (DGI-2): 2.6 OD
- DGI-2/LDH (OD) (DGI-2): 2.8
- ETAG (OD) (E-tag antibody): 42.2 OD

Sequence: RRILPWSFPGCGRMC (DGI-2-20R-3-A10; listed as Escherichia coli) [DGJ-2-20R-3-A10]
- LDH (OD) [1]: 1.1 OD
- DGI-2 (OD) (DGI-2): 6.2 OD
- DGI-2/LDH (OD) (DGI-2): 5.9
- ETAG (OD) (E-tag antibody): 16.4 OD

Sequence: DRHRAFVAEGLDGFRHSTGV (DGI-2-20F-PP-D4; listed as Escherichia coli)
- LDH (OD) [1]: 1.1 OD
- DGI-2 (OD) (DGI-2): 2.6 OD
- DGI-2/LDH (OD) (DGI-2): 2.3
- ETAG (OD) (E-tag antibody): 44.0 OD

Sequence: VQSGRDLGGLLRGGTGTEASP (DGI-2-20F-PP-D3; listed as Escherichia coli)
- LDH (OD) [1]: 0.9 OD
- DGI-2 (OD) (DGI-2): 2.2 OD
- DGI-2/LDH (OD) (DGI-2): 2.4
- ETAG (OD) (E-tag antibody): 15.0 OD

Sequence: SVSGGGVFGTGGRVRHQVSG (DGI-2-20F-PP-C5; listed as Escherichia coli)
- LDH (OD) [1]: 0.9 OD
- DGI-2 (OD) (DGI-2): 2.2 OD
- DGI-2/LDH (OD) (DGI-2): 2.4
- ETAG (OD) (E-tag antibody): 33.9 OD

Sequence: CRNFGVIWGAGWVSPGCEDJ (CRNFGVIWGAGWVSPGCEDI; not fully specified; non-natural residue J; DGI-2-20F-3-A1; listed as Escherichia coli) [DGI-2-20E-3-A1]
- LDH (OD) [1]: 1.0 OD
- DGI-2 (OD) (DGI-2): 2.8 OD
- DGI-2/LDH (OD) (DGI-2): 3.0
- ETAG (OD) (E-tag antibody): 14.3 OD

Sequence: VHSQGRMWAIPGLRGGTGAS (DGI-2-20R-3-D7; listed as Escherichia coli)
- LDH (OD) [1]: 1.0 OD
- DGI-2 (OD) (DGI-2): 5.2 OD
- DGI-2/LDH (OD) (DGI-2): 5.3
- ETAG (OD) (E-tag antibody): 18.7 OD

Sequence: RSRSSSGASGSMLRVQNHMVLGSWMVRQPMGSMTPFHGHG (DGI-2-40F-3-B5; listed as Escherichia coli)
- LDH (OD) [1]: 0.9 OD
- DGI-2 (OD) (DGI-2): 1.0 OD
- DGI-2/LDH (OD) (DGI-2): 1.2
- ETAG (OD) (E-tag antibody): 9.2 OD

Sequence: LGRTFVWGTCLHLSVSRFGH (DGI-2-20F-PP-C3; listed as Escherichia coli)
- LDH (OD) [1]: 1.0 OD
- DGI-2 (OD) (DGI-2): 5.3 OD
- DGI-2/LDH (OD) (DGI-2): 5.1
- ETAG (OD) (E-tag antibody): 39.9 OD

Sequence: RGVNSDMPRLYICRADGQGQ (DGI-2-20F-PP-H6; listed as Escherichia coli)
- LDH (OD) [1]: 0.8 OD
- DGI-2 (OD) (DGI-2): 1.6 OD
- DGI-2/LDH (OD) (DGI-2): 1.9
- ETAG (OD) (E-tag antibody): 18.9 OD

Sequence: VSFAHDWGRWWYQWEVG (DGI-2-20R-4-G22; listed as Escherichia coli)
- LDH (OD) [1]: 1.2 OD
- DGI-2 (OD) (DGI-2): 7.9 OD
- DGI-2/LDH (OD) (DGI-2): 6.5
- ETAG (OD) (E-tag antibody): 12.9 OD

Sequence: VGQSSGDARPLANLFVFPFV (DGI-2-20F-PP-F12; listed as Escherichia coli)
- LDH (OD) [1]: 0.9 OD
- DGI-2 (OD) (DGI-2): 2.1 OD
- DGI-2/LDH (OD) (DGI-2): 2.3
- ETAG (OD) (E-tag antibody): 47.6 OD

Sequence: RWSICRGLQYSIPGCAVEDLSDVMA (DGI-2-20C-4-H316; listed as Escherichia coli)
- LDH (OD) [1]: 1.0 OD
- DGI-2 (OD) (DGI-2): 3.8 OD
- DGI-2/LDH (OD) (DGI-2): 3.9
- ETAG (OD) (E-tag antibody): 7.2 OD

Sequence: RSYPRLCKQKGGVIGRMLPG (DGI-2-20F-PP-B2; listed as Escherichia coli)
- LDH (OD) [1]: 1.1 OD
- DGI-2 (OD) (DGI-2): 3.3 OD
- DGI-2/LDH (OD) (DGI-2): 2.9
- ETAG (OD) (E-tag antibody): 35.9 OD

Sequence: LPQSRWLSEAWASWVDGVVD (DGI-2-20F-4-F9; listed as Escherichia coli)
- LDH (OD) [1]: 1.0 OD
- DGI-2 (OD) (DGI-2): 5.6 OD
- DGI-2/LDH (OD) (DGI-2): 5.9
- ETAG (OD) (E-tag antibody): 19.6 OD

Sequence: GMWIRPNGHMELQGGYTARS (GMWIRPNGHMFLQGGYTARS; DGI-2-20R-4-G8; listed as Escherichia coli)
- LDH (OD) [1]: 1.1 OD
- DGI-2 (OD) (DGI-2): 1.5 OD
- DGI-2/LDH (OD) (DGI-2): 1.4
- ETAG (OD) (E-tag antibody): 14.5 OD

Sequence: SRPGWCSRGTAWGFPGCSSS (DGI-2-20R-3-C4; listed as Escherichia coli)
- LDH (OD) [1]: 1.1 OD
- DGI-2 (OD) (DGI-2): 4.5 OD
- DGI-2/LDH (OD) (DGI-2): 4.2
- ETAG (OD) (E-tag antibody): 19.1 OD

Sequence: SAFGCPLPRALGGGGARFYA (DGI-2-20F-PP-E11; listed as Escherichia coli)
- LDH (OD) [1]: 0.9 OD
- DGI-2 (OD) (DGI-2): 2.0 OD
- DGI-2/LDH (OD) (DGI-2): 2.2
- ETAG (OD) (E-tag antibody): 15.2 OD

Sequence: FGRDGDGIQRRQGGFSWVGDR (DGI-2-20F-PP-E2; listed as Escherichia coli)
- LDH (OD) [1]: 0.7 OD
- DGI-2 (OD) (DGI-2): 1.7 OD
- DGI-2/LDH (OD) (DGI-2): 2.4
- ETAG (OD) (E-tag antibody): 11.6 OD

Sequence: RNWLDKDCVWMGDCGARAGE (DGI-2-20F-4-E3; listed as Escherichia coli)
- LDH (OD) [1]: 0.9 OD
- DGI-2 (OD) (DGI-2): 3.8 OD
- DGI-2/LDH (OD) (DGI-2): 4.1
- ETAG (OD) (E-tag antibody): 16.9 OD

Sequence: MGVVLECEGGWSIPGQTCYF (DGI-2-20R-3-C7; listed as Escherichia coli)
- LDH (OD) [1]: 1.0 OD
- DGI-2 (OD) (DGI-2): 5.1 OD
- DGI-2/LDH (OD) (DGI-2): 5.1
- ETAG (OD) (E-tag antibody): 18.0 OD

Sequence: CYLSRLFRSGQGIGQFGHVE (DGI-2-20F-PP-A82; listed as Escherichia coli)
- LDH (OD) [1]: 1.1 OD
- DGI-2 (OD) (DGI-2): 2.5 OD
- DGI-2/LDH (OD) (DGI-2): 2.3
- ETAG (OD) (E-tag antibody): 16.5 OD

Sequence: WGCVFRQWASGSGAGCARRH (DGI-2-20R-3-D9; listed as Escherichia coli)
- LDH (OD) [1]: 1.0 OD
- DGI-2 (OD) (DGI-2): 6.7 OD
- DGI-2/LDH (OD) (DGI-2): 6.4
- ETAG (OD) (E-tag antibody): 19.7 OD

Sequence: DGKHLTKWSGRGWWSAWVGG (DGI-2-20R-3-B12; listed as Escherichia coli)
- LDH (OD) [1]: 1.0 OD
- DGI-2 (OD) (DGI-2): 5.7 OD
- DGI-2/LDH (OD) (DGI-2): 5.5
- ETAG (OD) (E-tag antibody): 15.5 OD

Sequence: GLRACDTYLGFCVGARRIDD (DGI-2-20F-3-B102; listed as Escherichia coli)
- LDH (OD) [1]: 1.0 OD
- DGI-2 (OD) (DGI-2): 2.4 OD
- DGI-2/LDH (OD) (DGI-2): 2.5
- ETAG (OD) (E-tag antibody): 18.0 OD

Sequence: TANGHRYGGCGLWCKWMSGM (DGI-2-20R-4-E2; listed as Escherichia coli)
- LDH (OD) [1]: 1.1 OD
- DGI-2 (OD) (DGI-2): 2.7 OD
- DGI-2/LDH (OD) (DGI-2): 2.5
- ETAG (OD) (E-tag antibody): 18.2 OD

Sequence: EGQRVVFLFGALVAGLCWRDR (DGI-2-20F-PP-F3; listed as Escherichia coli)
- LDH (OD) [1]: 1.1 OD
- DGI-2 (OD) (DGI-2): 2.6 OD
- DGI-2/LDH (OD) (DGI-2): 2.2
- ETAG (OD) (E-tag antibody): 18.7 OD

Sequence: GLYRRAGDASVGFSRWGREDCQVYFSVECLLGSSWGGYS (GLYRRAGDASVGFSRWGRFDCQVYFSVECLLGSSWGGYS; DGI-2-40F-4-F12; listed as Escherichia coli)
- LDH (OD) [1]: 0.9 OD
- DGI-2 (OD) (DGI-2): 2.2 OD
- DGI-2/LDH (OD) (DGI-2): 2.5
- ETAG (OD) (E-tag antibody): 8.7 OD

Sequence: ACSVGTALVFPQRWWYLGRS (DGI-2-20R-3-D6; listed as Escherichia coli) [DGL-2-20R-3-D6]
- LDH (OD) [1]: 1.1 OD
- DGI-2 (OD) (DGI-2): 2.2 OD
- DGI-2/LDH (OD) (DGI-2): 2.1
- ETAG (OD) (E-tag antibody): 12.9 OD

Sequence: FSSTGILLRSGRATAVGHVT (DGI-2-20F-3-A6; listed as Escherichia coli)
- LDH (OD) [1]: 1.1 OD
- DGI-2 (OD) (DGI-2): 1.5 OD
- DGI-2/LDH (OD) (DGI-2): 1.4
- ETAG (OD) (E-tag antibody): 13.2 OD

Sequence: RGSLLLTLPRLSGAVGTAYG (DGI-2-20F-PP-B3; listed as Escherichia coli)
- LDH (OD) [1]: 1.1 OD
- DGI-2 (OD) (DGI-2): 3.4 OD
- DGI-2/LDH (OD) (DGI-2): 3.0
- ETAG (OD) (E-tag antibody): 11.7 OD
